Results reported in article PMC8962522, “Direct interaction of TrkA/CD44v3 is essential for NGF-promoted aggressiveness of breast cancer cells” (Journal of Experimental & Clinical Cancer Research : CR, 2022).
“Also recorded” adds a separate entry of the source.

Tested on: CD44v3
Test: MST binding of P4 to CD44v3
Details: Supplementary Fig. 6C, listed as P4
Procedure: MST was conducted using an NT.115 A Pico MST instrument (Nano Temper Technologies GmbH) equipped with red and blue filter sets. The TrkA-His tagged extracellular domain protein (Ala 34-Gly423) (9966-TK-050; R&D Systems, United Kingdom), diluted to 200 nM in PBS-T buffer (supplied by the vendor), was labeled using a Monolith His-Tag Labeling Kit with RED-Tris-NTA (Nano Temper). The RED-Tris-NTA dye was diluted in PBS-T to 100 nM. The mix was incubated at RT in the dark for 30 min. Next, an extract expressing CD44v3-labeled protein (CD44v3-His) and ligand and/or TrkA was mixed at a 1:1 ratio and incubated at RT in the dark for 15 min. For the binding check, peptides and TrkA-His were used. […] The data were analyzed using MO Control Software (Nano Temper).
To block the TrkA-CD44v3 association, 4 mimetic peptides of CD44v3 were designed corresponding to zone 1 [(K) STSSNTISAG], zone 2 (WEPNEENEDE), zone 3 (RDRHLSFSGSG) and zone 4 (IDDDEDFISST) (Fig. 2F & G). The binding capacities of the CD44v3 mimetic peptides to TrkA were then measured by MST (Fig. 2H). […] To confirm mimetic peptide 4 binding, we assessed its ability to bind TrkA using nanoscale differential scanning fluorimetry (nanoDSF; Supplementary Fig. 6A & B).
Supplementary file 13046_2022_2314_MOESM3_ESM.pdf: Additional file 3: Supplementary Figure 1. […] CD44v3 and CD44v6 levels at the plasma membrane were assessed by flow cytometry (A-D). […]

Sequence: IDDDEDFISST [Peptide 4, mimetic peptide 4 (…) corresponding to the C-terminal region of CD44v3]
- binding to CD44v3 (in words): we did not detect CD44v3/P4 binding; also recorded: binds to TrkA but not to CD44v3
